Source: US20110306579A1, “METHODS OF NEUROPROTECTION USING NEUROPROTECTIVE STEROIDS AND A VITAMIN D” (EMORY UNIVERSITY, priority 2009, published 2011)

How the values were obtained:
[1] = test system: 20-month old Fischer 344 rats; experiment: Cerebral edema analysis after cortical contusion brain injury; type: in vivo, rat; details: 4 mg/kg
Experimental: The methodology used is described in VanLandingham et al., Neuropharmacology, 2006, 51, 1078-1085.
Sterile surgical procedures were used to prevent animal infection. Rats (20-month old Fischer 344 rats, which are the “human” equivalent of about 60 years old) were anesthetized and maintained on isoflurane and an equivalent amount of […] and O2 for 3 min prior to surgery. After brain contusion, O2 levels were doubled compared to […] and maintained through the reainder of the surgery procedure. A stereotaxic apparatus was used to stabilize the head in a horizontal position. Core body temperature was monitored and maintained at 37° C. using a Harvard homeothermic blanket (Harvard Apparatus, Holliston, Mass.). There was no direct measure used to deterct brain temperature. Blood oxygen and heart rate were maintained using a SurgiVet monitor (SurgiVet, Waukesha, Wis.) and maintained above 90% and 340 bpm respectively. A midline incision was made and the scalp retracted. A bilateral 6-mm craniotomy was performed with surgical drill centered at 3 mm rostral to bregma. The stainless steel impactor was positioned over the MFC at 3.0 mm A/P and 0.0 M/L. These coordinates represent the MFC as described by Paxinos and Watson (The Rat Brain in Stereotaxic Coordinates, Academic Press, San Diego, 1986). The cortical injury was induced using a pneumatically controlled device (Hoffman et al., J. Neurotrauma, 1994, 11, 417-431). Brain impact duration was 0.5 s. using a 5-mm impactor tip with a velocity set at 2.125 m/s and a cortical depth of 2 mm. Following the contusion, bleeding was halded and fascia and scalp were sutured shut. After surgery, animals were allowed to recover from anesthesia on a homeothermic heating blanket in a holding cage until awake. sham surgeries controlled for anesthesia and stress. All surgical procedures were the same, except that sham rates were not given a craniotomy or cortical injury. Previous studies using craniotomy as a control found no differences between shams with or without this procedure. (Goss et al., Pharmacol. Biochem. Behay. 2003, 76(2), 231-242).
These experimental solutions were then diluted 1:1 with sterile water for a final concentration of HBC of 22.5%.
All injections were done at the same time with brain harvesting at 24 h post-injury. Rats in each group were weightd prior to treatment to ensure proper dosage. The first injection at 1 h after surgery was given intraperitoneally to ensure rapid adsorption. All subsequent injections were made subcutaneously for gradual adsorption at 6 and 24 h. Injection times and neurosteroid doses were based on previous results of neurosteroid treatment (Roof et al., Twenty First Annual Meeting of the Society for Neuroscience, Miami Beach Fla., p. 191 and He et al., Exp. Neurol. 2004, 189, 404-412). The sterioids were dissolved in vehicle (22.5% 2-hydroxypropyl-b-cyclodextrin solution) at 4 mg/kg. The sham group received no treatment and injury control group received vehicle only.
At 24 h after traumatic brain injury flresh brains were extracted from the skull and the dorsal cerebrum was separated along the line of the lateral fissure. Four 3-mm coronal sections were cut rostral to caudal, placed in pre-weighed 1.5 mL tubes and re-weighed (wet weight). Tubes were then left uncapped and placed in a vacuum oven set at 60° C. with an atmospheric pressure of 0.3 for 48 h. Following tube recapping, the tissue samples were again weighed (dry weight). Cerebral edema (% water content) was determined as the difference in wet and dry weights divided by wet weight (Roof and Stein Restor. Neurol. Ncurosci., 1992, 4, 425-427). Edema measures are reflective of the difference inwater content between at the average of the two most rostral (injury region) segments and most caudal (occipital cortex) segments of the dorsal sections of the brain.

[2] = test system: 20-month-old male Fischer 344 rats; experiment: Spontaneous locomotor activity (open field) after TBI; type: in vivo, rat; details: 72 hours after injury; normalized to sham
Source text: The animals in this study were separated into two groups, vitamin D normal (D-normal) and vitamin D deficient (D-deficient). […] Animals in the D-deficient group were maintained on the diet for at least 21 days prior to surgery. […] For this same reason the null diet was not altered in any other way, and the rats assigned to the D-deficient group were maintained on it until they were killed for harvesting of brain tissue. Since vitamin D is activated by UVB light (280-315 nm wavelength), the overhead lights were modified to not produce radiation in this range.
Animals dehydrated due to blood loss were given 3 mL of lactated Ringer's solution subcutaneously within 6 hours of injury.
Animals were assigned to D-normal or D-deficicnt groups. […] The same assignment was followed for both 24-hour and 72-hour survival groups. […] All drug treatments were dissolved in vehicle, and injection volume was equally proportional to each animal's weight across all groups. The intact sham (SHAM) groups served to provide baseline data and therefore received no injury or injections.
In addition to molecular measures of inflammatory cytokines, the behavioral effects of the various treatments were examined. Since this study was limited to the short term effects on inflammation, only short-term Spontaneous Locomotor Activity was used.

CC(=O)[C@H]1CCC2C3CCC4=CC(=O)CC[C@]4(C)C3CC[C@@]21C (stereo partly drawn) [progesterone]
edema compared to subjects treated with vehicle ([1]; 24 hours post brain injury): decrease in edema
mean % difference edema ([1]; brain tissue 24 hours post brain injury, i.p. at 1 h, s.c. at 6 and 24 h): 2.0%
spontaneous locomotor activity (total distance, resting, stereotypy, movement time) [2]: little or no benefit
